What was measured:
Jurkat [1] = assay: metabolic activity relative to DMSO, 18 h (ratio); higher = more viable
How it was run: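 Jurkat or primary CD4+/CD8+ T cells (naive, or activated 48 h with CD3/CD28 Dynabeads) were treated 18 h with compound at 1 nM–10 µM (log10 steps) at 37 °C, 5% CO2. Then 100 µl of suspension went into 96-well plates with alamarBlue (10% v/v final). After 3.5 h, fluorescence was read on a FluoStar Omega (excitation 544 nm, emission 584 nm). Metabolic activity is normalised to mean DMSO controls.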

Jurkat [2] = assay: cytotoxicity relative to DMSO, 18 h (ratio); higher = less cell death (drugs called cytotoxic fall below 1)
How it was run: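 Cytotoxicity was measured by IncuCyte fluorescence imaging after confluency correction and normalisation to mean control values. Cells (Jurkat, or primary CD4+/CD8+ T cells that were naive or pre-activated 48 h with CD3/CD28 Dynabeads) received compound at 1 nM–10 µM in log10 steps for 18 h at 37 °C, 5% CO2. Imaging used ×10 magnification, five images per well, taken hourly over 3 h in 96-well plates with 250 nM final IncuCyte Cytotox Dye in 100 µl of suspension.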

Jurkat [3] = assay: confluency relative to DMSO, 18 h (ratio); higher = more viable
How it was run: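 Jurkat cells and primary CD4+/CD8+ T cells, naive or activated with CD3/CD28 Dynabeads for 48 h, were treated with compound (1 nM–10 µM, log10 steps) for 18 h at 37 °C. Following transfer of 100 µl into 96-well plates with IncuCyte Cytotox Dye and alamarBlue, wells were imaged at ×10, five images per well, each hour for 3 h. Confluency, obtained with the IncuCyte Basic Analyzer from phase-contrast images, is normalised to the mean of the control wells.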

Compound	metabolic activity (Jurkat [1]; 1 nM)	metabolic activity (Jurkat [1]; 10 nM)	metabolic activity (Jurkat [1]; 100 nM)	metabolic activity (Jurkat [1]; 1000 nM)	metabolic activity (Jurkat [1]; 10000 nM)	cytotoxicity (Jurkat [2]; 1 nM)	cytotoxicity (Jurkat [2]; 10 nM)	cytotoxicity (Jurkat [2]; 100 nM)	cytotoxicity (Jurkat [2]; 1000 nM)	cytotoxicity (Jurkat [2]; 10000 nM)	confluency (Jurkat [3]; 1 nM)	confluency (Jurkat [3]; 10 nM)	confluency (Jurkat [3]; 100 nM)	confluency (Jurkat [3]; 1000 nM)	confluency (Jurkat [3]; 10000 nM)
CCS(=O)(=O)N1CC(CC#N)(n2cc(-c3ncnc4[nH]ccc34)cn2)C1 [Baricitinib]	0.956	1.04	1.22	1.11	0.878	0.929	0.913	1.02	0.869	0.802	0.989	0.95	0.965	0.879	0.812
O=C(C=Cc1cccc(S(=O)(=O)Nc2ccccc2)c1)NO [Belinostat]	0.982	1.06	1.09	0.811	0.635	1.08	1.14	1.07	1.18	0.932	1.04	1.07	0.966	1.02	0.87
Cn1cnc2c(F)c(Nc3ccc(Br)cc3F)c(C(=O)NOCCO)cc21 [Binimetinib]	1.13	1.12	0.989	0.909	0.933	1.13	1.22	1	0.926	0.948	1	1.01	0.975	0.959	0.989
CC(C)CC(NC(=O)C(Cc1ccccc1)NC(=O)c1cnccn1)B(O)O (stereo not given) [Bortezomib]	1.2	1.13	0.556	0.181	0.149	1.02	0.944	0.569	0.531	0.539	0.99	0.969	0.721	0.934	0.951
COc1cc(N2CCC(N3CCN(C)CC3)CC2)ccc1Nc1ncc(Cl)c(Nc2ccccc2P(C)(C)=O)n1 [Brigatinib]	0.883	0.946	0.911	0.83	0.766	0.701	0.654	0.641	0.614	0.565	0.851	1.08	1.14	1.13	1.07
CCOC(=O)Nc1cc(-c2ccc(C)c(NS(C)(=O)=O)c2)nn2c(C)nnc12 [Bromosporine]	0.994	0.938	0.79	0.846	0.811	0.92	0.952	0.977	1.19	1.11	0.963	1	1.02	1.2	1.18
Nc1cc(C(F)(F)F)c(-c2cc(N3CCOCC3)nc(N3CCOCC3)n2)cn1 [Buparlisib]	0.939	0.925	0.834	0.742	0.377	1.03	1.06	0.975	0.987	0.6	1.04	1.05	0.999	1.02	0.756
O=c1cc(-c2ccccc2F)[nH]c2cc3c(cc12)OCO3 [CHM-1]	1.02	1.07	0.992	0.688	0.704	0.961	0.929	0.919	0.618	0.461	0.973	0.963	0.976	0.71	0.588
O=C(O)C1(C(=O)O)CCC1.[NH2-].[NH2-].[Pt+2] [Carboplatin]	0.863	0.781	0.818	0.83	0.819	0.95	1.07	0.984	0.993	0.905	0.969	0.997	0.974	0.995	0.951
CC(C)CC(NC(=O)C(CCc1ccccc1)NC(=O)CN1CCOCC1)C(=O)NC(Cc1ccccc1)C(=O)NC(CC(C)C)C(=O)C1(C)CO1 (stereo not given) [Carfilzomib]	1.02	0.882	0.128	0.113	0.13	1.02	0.883	0.531	0.572	0.543	1	0.909	0.803	0.867	0.818
CCS(=O)(=O)N1CCN(c2ccc(Nc3ncc(C(N)=O)c(NC4CC4)n3)cc2)CC1 [Cerdulatinib]	0.846	0.868	0.898	0.941	0.775	1.03	1.02	0.925	0.858	0.921	1.04	1.09	0.975	0.903	1.07
N.N.[Cl][Pt][Cl] [Cisplatin]	0.96	0.989	0.983	0.939	1.02	0.845	0.582	0.996	0.984	1.13	0.99	1.09	1.01	0.934	1.03
O=C(CCCCCCNC(=O)c1cnc(N(c2ccccc2)c2ccccc2Cl)nc1)NO [Citarinostat]	0.94	1.02	0.916	0.886	0.632	1.03	1.04	0.967	0.941	0.871	0.975	1	0.987	0.98	0.949
COc1cc2c(c(OC)c1OC)-c1ccc(OC)c(=O)cc1C(NC(C)=O)CC2 (stereo not given) [Colchicine]	0.862	0.83	0.595	0.519	0.476	0.985	1.19	0.649	0.552	0.539	1	1.03	0.72	0.663	0.637
COc1c(OCCCN2CCOCC2)ccc2c3n(c(=NC(=O)c4cnc(N)nc4)nc12)CCN3 [Copanlisib]	1.04	1.06	0.753	0.523	0.435	0.843	1.05	0.885	0.619	0.712	0.918	1.05	0.903	0.789	0.932
CC(Oc1cc(-c2cnn(C3CCNCC3)c2)cnc1N)c1c(Cl)ccc(F)c1Cl (stereo not given) [Crizotinib]	0.831	0.944	0.836	0.975	0.882	0.908	0.369	1.08	0.848	0.768	1.1	0.657	1	0.919	0.771
O=P1(N(CCCl)CCCl)NCCCO1 (stereo not given) [Cyclophosphamide]	1.14	1.07	1.04	1.02	1.03	1.16	0.989	0.959	0.983	0.977	1.01	0.94	0.948	0.977	0.951
CC(C)(C)c1nc(-c2cccc(NS(=O)(=O)c3c(F)cccc3F)c2F)c(-c2ccnc(N)n2)s1 [Dabrafenib]	0.973	1.02	0.992	0.91	0.73	0.941	0.994	0.966	0.846	0.863	0.98	1	0.973	0.971	0.965
Cn1c(=O)n(-c2ccc(C(C)(C)C#N)cc2)c2c3cc(-c4cnc5ccccc5c4)ccc3ncc21 [Dactolisib]	0.966	0.894	0.652	0.601	0.578	0.958	0.809	0.746	0.927	0.822	0.986	0.909	0.978	1.05	0.946
Cc1nc(Nc2ncc(C(=O)Nc3c(C)cccc3Cl)s2)cc(N2CCN(CCO)CC2)n1 [Dasatinib]	1.07	1.07	1.01	0.989	0.845	0.993	0.967	0.979	0.994	0.882	0.949	0.946	0.958	0.965	0.91
CCC(C)(Nc1ccnc(-c2c[nH]c3ncccc23)n1)C(=O)NCC(F)(F)F (stereo not given) [Decernotinib]	1.08	1.08	1.02	1.05	1.07	1.1	1.09	1.01	1.04	1.03	1.03	1.03	0.996	0.993	0.96
Nc1ncn(C2CC(O)C(CO)O2)c(=O)n1 (stereo not given) [Decitabine]	1.05	1.04	1.02	0.948	0.867	0.966	0.964	0.922	0.869	0.862	1.02	1.01	0.986	0.972	0.939
CCc1cnn2c(NCc3ccc[n+]([O-])c3)cc(N3CCCCC3CCO)nc12 (stereo not given) [Dinaciclib]	0.162	0.147	0.13	0.139	0.128	0.926	1.03	0.821	0.989	1.09	0.988	1.02	0.864	0.871	1.16
Cn1cc(-c2ccc(S(=O)(=O)n3ccc(C=CC(=O)Nc4ccccc4N)c3)cc2)cn1 [Domatinostat]	1.1	1.12	1.03	0.922	0.704	0.906	0.925	0.886	1.06	0.636	0.879	0.91	0.901	1.03	0.63
COc1cccc2c1C(=O)c1c(O)c3c(c(O)c1C2=O)CC(O)(C(=O)CO)CC3OC1CC(N)C(O)C(C)O1 (stereo not given) [Doxorubicin]	1.09	0.901	0.89	0.823	0.342	1.05	0.983	0.967	0.871	0.618	1.04	0.98	0.995	0.993	1.07
Nc1ccccc1NC(=O)c1ccc(CNC(=O)OCc2cccnc2)cc1 [Entinostat]	0.904	0.811	0.957	0.923	0.727	1.09	0.937	0.912	0.891	1.01	1.04	0.967	0.939	0.906	0.947
COC1CC2CCC(C)C(O)(O2)C(=O)C(=O)N2CCCCC2C(=O)OC(C(C)CC2CCC(OCCO)C(OC)C2)CC(=O)C(C)C=C(C)C(O)C(OC)C(=O)C(C)CC(C)C=CC=CC=C1C (stereo not given) [Everolimus]	0.773	0.935	0.975	0.958	0.981	0.853	0.843	0.947	0.996	0.893	0.88	0.877	0.969	1.06	0.906
COc1ccc(-c2nc(N3CCOCC3)c3sc(CN(C)c4ncc(C(=O)NO)cn4)cc3n2)cn1 [Fimepinostat]	0.731	0.914	0.796	0.772	0.42	0.792	1.09	1.05	1.12	0.892	0.995	1.12	1.2	1.31	1.23
COc1cc(Nc2ncc(F)c(Nc3ccc4c(n3)N(COP(=O)(O)O)C(=O)C(C)(C)O4)n2)cc(OC)c1OC [Fostamatinib]	1.21	1.23	1.1	1.01	0.925	1.06	1.05	0.951	0.893	0.783	1	0.995	0.961	0.911	0.821

From the supplement of paper PMC11919725
